Test results taken from ChEMBL document CHEMBL3352057, “Novel fluorinated pyrrolo[1,2-a]pyrazine-2,6-dione derivatives: synthesis and anticonvulsant evaluation in animal models of epilepsy” (Bioorg Med Chem, 2014).
Active and inactive are the calls of the source. The rule behind the calls is not given here.

Experiments:
[1] = system: Rattus norvegicus; experiment: Anticonvulsant activity in ip dosed Sprague-Dawley rat assessed as protection against maximal electroshock-induced seizures; assay type: functional
[2] = system: Rattus norvegicus; experiment: Anticonvulsant activity in ip dosed Sprague-Dawley rat assessed as protection against subcutaneous metrazol-induced seizures; assay type: functional
[3] = Protective index, ratio of TD50 for neurotoxicity in ip dosed Sprague-Dawley rat to ED50 for anticonvulsant activity in ip dosed MES Sprague-Dawley rat model; assay type: toxicity, organism-based; conditions: in vivo, read-out: Ratio TD50/ED50
[4] = system: Rattus norvegicus; experiment: Anticonvulsant activity in ip dosed Sprague-Dawley rat assessed as protection against maximal electroshock-induced seizures measured as time to peak effect; assay type: functional
[5] = Neurotoxicity in ip dosed Sprague-Dawley rat measured at 0.25 hr post dose; assay type: toxicity, organism-based; conditions: in vivo
[6] = system: Rattus norvegicus; experiment: Anticonvulsant activity in ip dosed Sprague-Dawley rat assessed as protection against subcutaneous metrazol-induced seizures measured at 0.25 hr post dose; assay type: functional
[7] = system: Mus musculus; experiment: Anticonvulsant activity in ip dosed corneal kindled albino CF1 mouse seizure model; assay type: functional
[8] = system: Mus musculus; experiment: Anticonvulsant activity in ip dosed corneal kindled albino CF1 mouse seizure model assessed as time to peak effect; assay type: functional
[9] = system: Mus musculus; experiment: Anticonvulsant activity in albino CF1 mouse assessed as protection against maximal electroshock-induced seizures at 100 mg/kg, ip measured after 0.25 hr; assay type: functional, organism-based; parameters: dose 100 mg/kg
[10] = system: Mus musculus; experiment: Anticonvulsant activity in albino CF1 mouse assessed as protection against maximal electroshock-induced seizures at 100 mg/kg, ip measured after 0.5 hr; assay type: functional, organism-based; parameters: dose 100 mg/kg
[11] = system: Mus musculus; experiment: Anticonvulsant activity in albino CF1 mouse assessed as protection against maximal electroshock-induced seizures at 100 mg/kg, ip measured after 1 hr; assay type: functional, organism-based; parameters: dose 100 mg/kg
[12] = system: Mus musculus; experiment: Anticonvulsant activity in albino CF1 mouse assessed as protection against maximal electroshock-induced seizures at 100 mg/kg, ip measured after 4 hrs; assay type: functional, organism-based; parameters: dose 100 mg/kg
[13] = system: Mus musculus; experiment: Anticonvulsant activity in albino CF1 mouse assessed as protection against subcutaneous metrazol-induced seizures at 100 mg/kg, ip measured after 0.5 hr; assay type: functional, organism-based; parameters: dose 100 mg/kg
[14] = system: Mus musculus; experiment: Anticonvulsant activity in albino CF1 mouse assessed as protection against subcutaneous metrazol-induced seizures at 100 mg/kg, ip measured after 4 hrs; assay type: functional, organism-based; parameters: dose 100 mg/kg
[15] = system: Mus musculus; experiment: Neurotoxicity in albino CF1 mouse at 100 mg/kg, ip measured after 0.25 hr; assay type: toxicity, organism-based; parameters: dose 100 mg/kg, route intraperitoneal; conditions: in vivo
[16] = system: Mus musculus; experiment: Neurotoxicity in albino CF1 mouse at 100 mg/kg, ip measured after 0.5 hr; assay type: toxicity, organism-based; parameters: dose 100 mg/kg, route intraperitoneal; conditions: in vivo
[17] = system: Mus musculus; experiment: Neurotoxicity in albino CF1 mouse at 100 mg/kg, ip measured after 1 hr; assay type: toxicity, organism-based; parameters: dose 100 mg/kg, route intraperitoneal; conditions: in vivo
[18] = system: Mus musculus; experiment: Neurotoxicity in albino CF1 mouse at 100 mg/kg, ip measured after 4 hrs; assay type: toxicity, organism-based; parameters: dose 100 mg/kg, route intraperitoneal; conditions: in vivo
[19] = system: Mus musculus; experiment: Neurotoxicity in albino CF1 mouse at 300 mg/kg, ip measured after 0.5 hr; assay type: toxicity, organism-based; parameters: dose 300 mg/kg, route intraperitoneal; conditions: in vivo
[20] = system: Mus musculus; experiment: Anticonvulsant activity in albino CF1 mouse assessed as protection against subcutaneous metrazol-induced seizures at 300 mg/kg, ip measured after 0.5 hr; assay type: functional, organism-based; parameters: dose 300 mg/kg

SMILES	ED50 [1] [µmol/kg]	ED50 [2] [µmol/kg]	selectivity ratio [3]	Time [4] [h]	TD50 at 0.25 h [5] [µmol/kg]	ED50 [6] [µmol/kg]	ED50 [7] [µmol/kg]	Time [8] [h]	Activity [9]	Activity [10]	Activity [11]	Activity [12]	Activity [13]	Activity [14]	Activity [15]	Activity [16]	Activity [17]	Activity [18]	Activity [19]	Activity [20]
CCCC(CCC)C(=O)[O-].[Na+] [VALPROATE SODIUM]	890	1420	2.1	0.5	1910	1420	948	0.5	–	–	–	–	–	–	–	–	–	–	–	–
O=C1NC(=O)[C@@H](c2cccc(C(F)(F)F)c2)N2CCC[C@@H]12	–	–	–	–	–	–	–	–	inactive	inactive	inactive	inactive	inactive	inactive	Toxic	Non-toxic	Non-toxic	Non-toxic	Toxic	Active
